Laboratory results as given in PubChem BioAssay AID1918993 (Molecular Pharmacology Branch, DTP, NCI, 2023).

System: 233499-124-R-J3-PDC complex spheroid growth
Assay: Anticancer human tumor 233499-124-R-J3-PDC patient-derived colon adenocarcinoma cell line growth inhibition [AhR]
Conditions: for IC50: curve of first compound; for viability, T/C: stronger effect = lower value
Procedure, shortened: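 Complex tumor spheroids co-cultured with HUVEC and human MSC stroma; AhR antagonists tested in combination with standard-of-care and investigational agents. Top concentration at or near clinical Cmax (else 10 microM), half-log dilutions; growth expressed as percent test/control.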

[1] = second compound 0.1 µM, first compound 0.0316 µM
[2] = second compound 0.1 µM, first compound 0.1 µM
[3] = second compound 0.1 µM, first compound 0.316 µM
[4] = second compound 0.1 µM, first compound 1 µM
[5] = second compound 0.1 µM, first compound 3.16 µM
[6] = second compound 0.1 µM, first compound 10 µM
[7] = second compound 0.316 µM, first compound 0.0316 µM
[8] = second compound 0.316 µM, first compound 0.1 µM
[9] = second compound 0.316 µM, first compound 0.316 µM
[10] = second compound 0.316 µM, first compound 1 µM
[11] = second compound 0.316 µM, first compound 3.16 µM
[12] = second compound 0.316 µM, first compound 10 µM
[13] = second compound 1 µM, first compound 0.0316 µM
[14] = second compound 1 µM, first compound 0.1 µM
[15] = second compound 1 µM, first compound 0.316 µM
[16] = second compound 1 µM, first compound 1 µM
[17] = second compound 1 µM, first compound 3.16 µM
[18] = second compound 1 µM, first compound 10 µM
[19] = second compound 3.16 µM, first compound 0.0316 µM
[20] = second compound 3.16 µM, first compound 0.1 µM
[21] = second compound 3.16 µM, first compound 0.316 µM
[22] = second compound 3.16 µM, first compound 1 µM
[23] = second compound 3.16 µM, first compound 3.16 µM
[24] = second compound 3.16 µM, first compound 10 µM
[25] = second compound 10 µM, first compound 0.0316 µM
[26] = second compound 10 µM, first compound 0.1 µM
[27] = second compound 10 µM, first compound 0.316 µM
[28] = second compound 10 µM, first compound 1 µM
[29] = second compound 10 µM, first compound 3.16 µM
[30] = second compound 10 µM, first compound 10 µM
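Also: spheroids exposed to agents for seven days before reading.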

Work on O=C(c1cc(Cc2n[nH]c(=O)c3ccccc23)ccc1F)N1CCN(C(=O)C2CC2)CC1 + Cc1cncc(-c2nc(NCCc3c[nH]c4ccccc34)c3ncn(C(C)C)c3n2)c1 yielded an IC50 (second compound 0.1 µM) of over 10 µM, an IC50 (second compound 0.316 µM) of over 10 µM and an IC50 (second compound 1 µM) of over 10 µM. The IC50 (second compound 3.16 µM) was over 10 µM, the IC50 (second compound 10 µM) was under 0.0316 µM and the viability, T/C [1] was 115%. The viability, T/C [2] was 105%, the viability, T/C [3] was 100% and the viability, T/C [4] was 102%. The viability, T/C [5] was 98.6%, the viability, T/C [6] was 105% and the viability, T/C [7] was 106%. It also gave a viability, T/C [8] of 99.3%, a viability, T/C [9] of 96.3% and a viability, T/C [10] of 95.5%. It also gave a viability, T/C [11] of 103%, a viability, T/C [12] of 92.3% and a viability, T/C [13] of 87.5%. It also gave a viability, T/C [14] of 97.2%, a viability, T/C [15] of 93.9% and a viability, T/C [16] of 71.5%. It also gave a viability, T/C [17] of 87.5%, a viability, T/C [18] of 86% and a viability, T/C [19] of 74.8%. It also gave a viability, T/C [20] of 86.4%, a viability, T/C [21] of 76.3% and a viability, T/C [22] of 83.6%. For the same molecule, the viability, T/C [23] was 85.9%, the viability, T/C [24] was 90.1% and the viability, T/C [25] was 5.45%. For the same molecule, the viability, T/C [26] was 6.91%, the viability, T/C [27] was 19.4% and the viability, T/C [28] was 16.2%. For the same molecule, the viability, T/C [29] was 8.78% and the viability, T/C [30] was 19.1%.

O=C(C=Cc1cccc(S(=O)(=O)Nc2ccccc2)c1)NO + Cc1cncc(-c2nc(NCCc3c[nH]c4ccccc34)c3ncn(C(C)C)c3n2)c1 showed an IC50 (second compound 0.1 µM) of 5.27 µM, an IC50 (second compound 0.316 µM) of 5.76 µM and an IC50 (second compound 1 µM) of 5.46 µM. It also gave an IC50 (second compound 3.16 µM) of 3.1 µM, an IC50 (second compound 10 µM) of under 0.0316 µM and a viability, T/C [1] of 103%. It also gave a viability, T/C [2] of 96.8%, a viability, T/C [3] of 111% and a viability, T/C [4] of 122%. For the same molecule, the viability, T/C [5] was 82%, the viability, T/C [6] was 9.95% and the viability, T/C [7] was 84.6%. The viability, T/C [8] was 98.7%, the viability, T/C [9] was 94.4% and the viability, T/C [10] was 105%. It also gave a viability, T/C [11] of 107%, a viability, T/C [12] of 5.83% and a viability, T/C [13] of 84.6%. It also gave a viability, T/C [14] of 97.7%, a viability, T/C [15] of 88.8% and a viability, T/C [16] of 103%. The viability, T/C [17] was 95.5%, the viability, T/C [18] was 1.53% and the viability, T/C [19] was 78.6%. It also gave a viability, T/C [20] of 78.2%, a viability, T/C [21] of 80.8% and a viability, T/C [22] of 93.2%. The viability, T/C [23] was 49.4%, the viability, T/C [24] was 3.18% and the viability, T/C [25] was 7.06%. The viability, T/C [26] was 6.48%, the viability, T/C [27] was 7.01% and the viability, T/C [28] was 2.38%. It also gave a viability, T/C [29] of 1.78% and a viability, T/C [30] of 0.38%.
